According to article PMC9255995 (Oncotarget, 2022):

Columns and labels:
[1] = test system: pRb (Ser780) in MDA-MB-453 cells; assay: pRb (Ser780) high content imaging cellular assay, CDK4-dependent MDA-MB-453; type: cell-based; conditions: Homo sapiens, CDK4-dependent cell line, n = 4, read-out: pRb (Ser780) Cellular assays IC50 MDA-MB-453
Description: (§1) Intracellular phosphorylation of Rb in its residue 780 (Ser780) was measured using fluorescently labeled phospho-specific antibodies and high content imaging. […]
(§2) The mean fluorescence intensity, (Thermo Fisher P3566) dilution in PBS was added for 1 h or median of fluorescence (MFI), was calculated, and at RT. Fluorescence plates were scanned with ACUMEN compared for individual well and condition. EXPLORER™ monitoring Alexa Fluor 488 and PI signals Cell cycle was analyzed using a Ki67/PI protocol. using 488nm wavelength. […]
(§3) (Immunostep, PI/RNASE) for 15 min at RT in the dark. and representation of final readouts. JMP (Statistical […]
(§4) pRb Ser780 – high content imaging cell-based was incubated with an antibody against Annexin V. After assay [previously described in Torres-Guzmán et al. 10 minutes of incubation in dark, cells were washed twice (2017)] using Annexin buffer V. Finally, cells were analyzed using MDA-MB-453 (CDK4-dependent) and NCI-H1568 the flow cytometer where PI (1:100) was automatically (CDK6-dependent) cells were seeded at a density of 5 000 added. The percentage of cells at the different phases of and 3 000 cells per well, respectively, in 96-well plates. apoptosis was represented (PI–/Annexin V- for Alive cells, Between 14–24 h after seeding, cells were treated with PI–/Annexin V+ for Early apoptotic cells, PI+/Annexin […]
(§5) V+ for Late apoptotic cells and PI+/Annexin V– for Dead
(§6) Compounds were provided as 10mM stock in 100% cells).
(§7) DMSO and were further diluted to achieve the desired Senescence final concentration (DMSO 0.2%). For fluorescent detection of β-galactosidase, cells After treatment with compounds, the cells were washed with PBS 1X and fixed using 2% PFA incubated at 37°C and 5% CO2 for 4h before being (Acros organics, 119690010) for 10 minutes. Then, cells washed once with PBS and adding 100 μl of fresh media. were washed using PBS+1%BSA and incubated with the […]

pRb in MDA-MB-361 cells = assay: Inhibition of pRb in breast cancer cell line MDA-MB-361; type: cell-based; conditions: Homo sapiens, 16 hours
pRb in MDA-MB-231 cells = assay: Inhibition of pRb in breast cancer cell line MDA-MB-231; type: cell-based; conditions: Homo sapiens, 16 hours
[2] = test system: Rb1-deficient breast cancer cell lines; assay: Breast cancer cell panel proliferation (nuclei count); type: cell-based, human; conditions: two doublings
Description: A panel of 37 BC cell lines (see Supplementary Table 3 for details) was obtained from the American Type Culture Collection (ATCC, Manassas, Virginia, USA 30-4500 K) or the German Collection of Microorganisms and Cell Cultures GmbH (DSMZ). Cells were cultured according to ATCC or DSMZ recommendations for fewer than ten passages. Cells were seeded in 96 or 384-well plates and incubated overnight prior to treatment.
Cells were plated at 1,000 or 2,000 cells per well in 384-well plates in a total volume of 25 μl of either growth media alone; with 2 μM staurosporine; or with decreasing concentrations of test compounds with a range 20 μM–1 nM. Test compounds were prepared in 100% DMSO using a dilution factor of 1:3 before addition to the cells pre-diluted in growth media. Cells were incubated at 37°C until the untreated cells had doubled twice. Cells were fixed with 70% ethanol, treated with RNAse and nuclei stained with Propidium Iodide (PI). Cell nuclei per well were counted using an ACUMEN EXPLORER™ (STP LABTECH LTD) to determine the number of cells remaining after treatment. […]
were thawed and resuspended in IMDM, 10% hiFBS […]
by curve, slope = steepness of curve at IC50. IC50: 558385), anti-CDK4 antibody (Abcam ab75511) and anti- […]
(ligand binding, enzyme response) by 50%. Fujifilm LAS4000. Actin (Sigma A5441) was used as a %Inh = [(median Max- x/ median Max – median loading control. […]
model were plotted as Geometric means in a waterfall plot using knime workflows. […]
containing 200 μg/ml Ribonuclease A (Sigma R6513).
To monitor senescence, cells […]
treated cells. The same procedure was also followed to instructions. […]
process. was removed. Cell pellet was incubated with Annexin […]
treated controls. […] Cells were analyzed […]
antibodies against CD13-FITC and CD11b-PE. After 10 exclusion and singlets selection). A minimum of 5000 […]
and supernatant was discarded. Cells were resuspended in (Alive). AnnexinV+/PI– (Early apoptosis), Annexin+/PI+ buffer for acquisition in flow cytometer. […]
cytometer (488-nm laser and 585/40nm filter). […] Finally, cells were washed and analyzed

[3] = test system: pRb in MDA-MB-175 VII cells; assay: Inhibition of pRb in breast cancer cell line MDA-MB-175 VII; type: cell-based; conditions: Homo sapiens, 16 hours
pRb in MDA-MB-134 cells = assay: Inhibition of pRb in breast cancer cell line MDA-MB-134; type: cell-based; conditions: Homo sapiens; 16 hours
[4] = test system: pRb (Ser780) in MDA-MB-453 cells; assay: pRb (Ser780) washout experiment in MDA-MB-453; type: cell-based; conditions: Homo sapiens
Description: as §2, with “using the flow cytometer (gated on single and alive RNase A (Sigma R6513) and Propidium Iodide (PI) cells subpopulations). The mean” for “The mean”
Next, cells were washed, Raw data were analyzed with FlowJo 10.6 software. and the cell pellet was incubated with PI/RNase A Graph Pad v8.4.3 software was used for data analysis (Immunostep, PI/RNASE) for 15 min at RT in the dark. and representation of final readouts. JMP (Statistical Cells were analyzed using the flow cytometer (gated for Discovery from SAS) was used for the statistical treatment debris exclusion and single cells). A minimum of 5 000 (ANOVA, pair-wise analysis) of the data. […]
All data were analyzed using FlowJo 10.6 and Graph Pad […]
as §4, §5, §6, §7

[5] = test system: pRb (Ser780) in NCI-H1568 cells; assay: pRb (Ser780) high content imaging cellular assay, CDK6-dependent NCI-H1568; type: cell-based; conditions: Homo sapiens, CDK6-dependent cell line, n = 4, read-out: pRb (Ser780) Cellular assays IC50 NCI-H1568
Description: as §1
as §2, with “using the flow cytometer (gated on single and alive RNase A (Sigma R6513) and Propidium Iodide (PI) cells subpopulations). The mean” for “The mean”
as §3, §4, §5, §6, §7

pRb in MCF-7 cells = assay: Inhibition of pRb in breast cancer cell line MCF-7; type: cell-based; conditions: Homo sapiens, MCF7; 16 hours
pRb in BT474 cells = assay: Inhibition of pRb in breast cancer cell line BT474; type: cell-based; conditions: Homo sapiens, BT-474; 16 hours
pRb in HCC70 cells = assay: Inhibition of pRb in breast cancer cell line HCC70; type: cell-based; conditions: Homo sapiens, 16 hours
T47D cells = assay: T47D continuous dosing, apoptosis by Annexin V/PI flow cytometry; type: cell-based, human; conditions: after 8 days of continuous dosing
Description: T47D cells were seeded in six-well plates (50 000 cells/well) in 2 ml of cell medium (10% hiFBS [Fisher] and 1% Pen/Strep [Invitrogen]). […] Non-treated cells (0.04% DMSO) and staurosporine 1 μM were used as controls for minimum and maximum inhibition controls respectively. […] Cells were then detached using trypsin and transferred to the deep well plate and spun at 1 300 rpm for 5 min. Cell pellet was washed using PBS1X and plated for apoptosis measurement (Annexin V/PI), using the procedure described above (mature neutrophils). All cells were gated on FSC/SSC to exclude debris and doublets.

[6] = Viability of isolated mature neutrophils from human whole blood (Annexin V/PI); type: cell-based
Description: Human whole blood was obtained from six healthy donors who previously provided written informed consent. Mature neutrophils were isolated from human whole blood, using a negative-selection technique (MACSxpress isolation kit, Miltenyi 130-104-434). CD16 cell surface expression (Miltenyi, 130-113-396) was used as quality control; only samples with yield > 95% passed QC. CD34+ human bone marrow primary progenitor cells were obtained from Tebu bio (BM34C-4).
Mature neutrophils were plated in a 96-well plate (60K cells per well) in 100 μl RPMI 1640 (Invitrogen), 10% hiFBS (Fisher) and 1% Pen/Strep (Invitrogen).
Neutrophils were plated in a 96-well plate (60K cells/well) in the above-mentioned cell medium. A 10 mM stock of each CDK4 & 6i was used to make ten-point 1:3 serial dilutions in 100% DMSO; multiple dilution steps were used to reach the concentration in the assay: 10 μM, 0.1% DMSO. Non-treated cells (0.1% DMSO) and roscovitine (20 μM) were used as controls. Neutrophils were incubated for 6 h. Following treatment, cells were washed with FACS flow (BD, 342 003), and supernatant was removed. The cell pellet was stained with Annexin V-FITC antibody for 10 min in the dark. Cells were washed with Annexin buffer, centrifuged at 300 G for 5 min, supernatant was discarded, and cell pellet was resuspended in 100 μl of Annexin buffer and analyzed by flow cytometry. PI 1:200 was added automatically by the cytometer. All incubations occurred at 37°C, 5% CO2.
The percentage of alive, early apoptosis, late apoptosis, and dead cells was monitored using the Annexin V/PI assay. Cells were incubated with an anti-human Annexin V-FITC antibody, binding specifically to phosphotidylserine (PS), for 10 min in the dark. PS redistributes to the outer part of the cell membrane in an early stage of apoptosis; in late apoptotic cells, as the cell membrane loses its integrity, both PS and PI can be detected. […]

CDK4/CyclinD1 = CDK4/CyclinD1 (Homo sapiens, UniProt P11802); conditions: cell-free assay, KiATP
Description: Compounds were mixed with substrate mix (C-terminal retinoblastoma fragment [CTRF] peptide and ATP/33-P ATP) at a final concentration range of 2 μM–0.1 nM. The mix was incubated for 90 min at RT and the reaction was then stopped by adding 80 μl of 10% ortho-Phosphoric acid. The mix was next transferred to Multiscreen filter plates (Millipore) to retain phosphorylated peptide. The plates were read in a Microbeta Trilux instrument. Reaction mix with excess of EDTA was used as assay “bottom signal”; complete reaction mix without the inhibitor/compound was used as assay “top signal”.
For IC50 determination, results were fitted to a four-parameter dose-response curve using the following equation:
For the ATP saturation studies Ki and K’i parameters were estimated using the formula:
V=Vmax[S]/[Km(1+[I]/Ki)+[S](1+[I]/Ki')]

pRb in EFM-19 cells = assay: Inhibition of pRb in breast cancer cell line EFM-19; type: cell-based; conditions: Homo sapiens, 16 hours
[7] = read-out: relative IC50 for pRb (Ser780) reduction, 12 h after compound removal, MDA-MB-453, 4 h treatment then 12 h washout
[8] = MDA-MB-453, 4 h treatment, before compound removal, read-out: relative IC50 for pRb (Ser780) reduction, treatment phase

CDK4/CyclinD1, sequence (P11802 whole entry): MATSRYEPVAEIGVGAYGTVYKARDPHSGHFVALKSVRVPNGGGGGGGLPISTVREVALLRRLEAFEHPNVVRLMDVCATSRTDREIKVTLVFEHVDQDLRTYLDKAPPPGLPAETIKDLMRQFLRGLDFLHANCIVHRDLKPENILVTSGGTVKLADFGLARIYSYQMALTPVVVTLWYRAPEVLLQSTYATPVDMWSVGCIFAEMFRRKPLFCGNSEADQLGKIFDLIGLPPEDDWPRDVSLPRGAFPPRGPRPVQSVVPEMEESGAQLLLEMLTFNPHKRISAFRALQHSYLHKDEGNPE
CDK4/CyclinD1, sequence (P24385 whole entry partner): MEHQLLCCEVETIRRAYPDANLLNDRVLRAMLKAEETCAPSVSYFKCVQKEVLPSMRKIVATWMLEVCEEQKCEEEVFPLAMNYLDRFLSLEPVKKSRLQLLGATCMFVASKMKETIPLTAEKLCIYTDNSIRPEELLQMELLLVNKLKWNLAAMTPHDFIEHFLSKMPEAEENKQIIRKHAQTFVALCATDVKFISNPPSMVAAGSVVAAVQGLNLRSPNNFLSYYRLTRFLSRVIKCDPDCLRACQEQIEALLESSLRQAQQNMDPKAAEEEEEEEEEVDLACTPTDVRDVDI

## CCN1CCN(Cc2ccc(Nc3ncc(F)c(-c4cc(F)c5nc(C)n(C(C)C)c5c4)n3)nc2)CC1 [Abemaciclib, abemaciclib]
[1]
  IC50: 7.4 nM
pRb in MDA-MB-361 cells
  IC50: 8.24 ± 1.6 nM
pRb in MDA-MB-231 cells
  IC50: 17.1 ± 4.2 nM
[2]
  activity in Rb1-deficient cell lines (proliferation): inactive
[3]
  IC50: 17.8 ± 2.8 nM
pRb in MDA-MB-134 cells
  IC50: 8.5 ± 0.9 nM
[4]; [7]
  IC50: < 100 nM
[4]; [8]
  IC50: 6.4 nM
[5]
  IC50: 94 nM
pRb in MCF-7 cells
  IC50: 19.4 ± 7.4 nM
pRb in BT474 cells
  IC50: 4.58 ± 2.9 nM
pRb in HCC70 cells
  IC50: > 6000 nM
T47D cells; 50 nM
  percentage in total apoptotic and dead cells: 28.1%
T47D cells; 100 nM
  percentage in total apoptotic and dead cells: 40.7%
[6]
  viability at 6 h: 82.5%
CDK4/CyclinD1
  specificity for CDK4/Cyclin D1 over CDK6/Cyclin D3 complexes: approximately 14 fold
pRb in EFM-19 cells
  IC50: 4.4 ± 1.2 nM

## CC(=O)c1c(C)c2cnc(Nc3ccc(N4CCNCC4)cn3)nc2n(C2CCCC2)c1=O [Palbociclib, palbociclib]
[1]
  IC50: 23 nM
pRb in MDA-MB-361 cells
  IC50: 14.6 ± 2.1 nM
pRb in MDA-MB-231 cells
  IC50: 16.1 ± 7.6 nM
[2]
  activity in Rb1-deficient cell lines (proliferation): inactive
[3]
  IC50: 18.9 ± 4.7 nM
pRb in MDA-MB-134 cells
  IC50: 20.5 ± 8.2 nM
[4]; [7]
  IC50: 447 nM
[4]; [8]
  IC50: 14.1 nM
[5]
  IC50: 63 nM
pRb in MCF-7 cells
  IC50: 25.6 ± 14 nM
pRb in BT474 cells
  IC50: 11.5 ± 5.5 nM
pRb in HCC70 cells
  IC50: > 6000 nM
T47D cells; 50 nM
  percentage in total apoptotic and dead cells: 13.2%
T47D cells; 100 nM
  percentage in total apoptotic and dead cells: 18.7%
[6]
  viability at 6 h: 82.9%
pRb in EFM-19 cells
  IC50: 11 ± 0.6 nM

## CN(C)C(=O)c1cc2cnc(Nc3ccc(N4CCNCC4)cn3)nc2n1C1CCCC1 [Ribociclib, ribociclib]
[1]
  IC50: 53 nM
pRb in MDA-MB-361 cells
  IC50: 54.2 ± 13.8 nM
pRb in MDA-MB-231 cells
  IC50: 71.5 ± 26.5 nM
[2]
  activity in Rb1-deficient cell lines (proliferation): inactive
[3]
  IC50: 115 ± 80.9 nM
pRb in MDA-MB-134 cells
  IC50: 60 ± 19.7 nM
[5]
  IC50: 554 nM
pRb in MCF-7 cells
  IC50: 116 ± 78.5 nM
pRb in BT474 cells
  IC50: 34 ± 26.7 nM
pRb in HCC70 cells
  IC50: > 6000 nM
[6]
  viability at 6 h: 81.4%
pRb in EFM-19 cells
  IC50: 31 ± 3.6 nM
